Measurements taken from patent publication US20080200655A1, “Protein Formulations Containing Sorbitol” (Wyeth, priority 2007, published 2008).

Columns and labels:
MAB-002 = test: Five freeze-thaw cycles of MAB-002 in formulations with different polyols, HMW species formation; assay type: physicochemical; details: MAB-002 5 mg/ml, 10 mM histidine pH 6.0, various polyol concentrations
Description: This experiment compared mannitol to other polyols with different maximum solubilities with respect to their abilities to induce aggregation during freeze-thaw. A monoclonal antibody referred to as MAB-002 was dialyzed into different liquid formulations containing mannitol, galactitol, or sorbitol, respectively, at various concentrations. Each formulation also contained 10 mM histidine, pH 6.0. The final concentration of MAB-002 in each of the liquid formulations was 5 mg/ml. Each formulation was then subject to five cycles of freeze-thaw, and monitored for HMW species formation. Changes in the percentage of HMW species was plotted against the polyol concentrations in FIG. 3.

[1] = test system: four monoclonal antibodies (mAb2, mAb3, mAb4, mAb5), a cytokine and a fusion protein; test: Five freeze-thaw cycles of six proteins in 250 mM mannitol or sorbitol, HMW species formation; assay type: physicochemical; details: each protein 1 mg/ml, 10 mM histidine pH 6.0, 250 mM polyol
Description: Six different proteins including four different monoclonal antibodies (referred to as mAb2, mAb3, mAb4, and mAb5), a cytokine and a fusion protein were dialyzed into 10 mM histidine, pH 6.0, and 250 mM mannitol or sorbitol. The final concentration of each protein was 1 mg/ml. The formulations were then subject to five cycles of freeze-thaw as described above, and monitored for HMW species formation.

[2] = Sub ambient DSC scan of formulation during cooling and warming; assay type: physicochemical; details: formulation containing the polyol
[3] = cited from earlier work

Row | SMILES | Induction of aggregation (change in percentage of HMW species) (MAB-002) | Protein aggregation (HMW species formation) [1] | Crystallization during cooling and warming [2] | Maximum solubility [3] [mM]
1 | OC[C@@H](O)[C@@H](O)[C@H](O)[C@@H](O)CO [sorbitol] | did not induce aggregation significantly compared to mannitol | suppresses aggregation of multiple proteins | no crystallization occurred | 4500
2 | OC[C@@H](O)[C@@H](O)[C@H](O)[C@H](O)CO [mannitol] | – | considerably more protein aggregation | – | 1000
3 | OC[C@@H](O)[C@H](O)[C@H](O)[C@@H](O)CO [galactitol] | induced aggregation at low concentrations and at a faster rate compared to mannitol | – | – | 180
